Test results published in patent publication US12048704B2, “Method for treatment of cancer with combination of cold atmospheric plasma and a gene inhibitor” (Jerome Canady Research Institute for Advanced Biological …, priority 2019, dated 2024).

Tested on: MDA-MB-231 cells
Assay: MTT cell viability assay with/without CAP treatment
Assay type: cell-based, Human
Conditions: for cell viability (baseline toxicity), agent alone: MDA-MB-231, without CAP treatment, MTT 24 hours
Experimental: Human breast cancer cell lines T-47D, SK-BR-3, and BT-474, were purchased from ATCC (Manassas, Va., USA). MCF-7, MDA-MB-231, Hs578T, and HCC1806 were generously donated by Professor Kanaan' s laboratory at Howard University. All cell lines except SK-BR-3 were cultured in Roswell Park Memorial Institute (RPMI) 1640 Medium supplemented with 10% fetal bovine serum (Sigma-Aldrich, St. Louis, Mo., USA) and 1% Pen Strep (Thermo Fisher Scientific, Waltham, Mass., USA) in a 37° C. and 5% CO2 humidified incubator (Thermo Fisher Scientific, Waltham, Mass., USA). The exceptions for culture conditions include T-47D, which was additionally supplemented with 0.5 mg/mL insulin. SK-BR-3 was cultured in McCoy's 5A Medium. When cells reached approximately 80% confluence, cells were seeded at a concentration of 10^5 cells/well into 12-well plates (USA Scientific, Ocala, Fla., USA) with a 1 mL media volume per well for cell viability assays. MDA-MB-231 cells were transfected with siRNA and transfection reagent according to the manufacturer's instructions. Transfection of BCL2A1 esiRNA or control esiRNA was done at 13 pmol. Briefly, cells were seeded in a 12-well-plate at a density of 1×10^5 cells/well overnight in (RPMI) 1640 Medium supplemented with 10% fetal bovine serum (Sigma-Aldrich, St. Louis, Mo., USA) and 1% Pen Strep (Thermo Fisher Scientific, Waltham, Mass., USA) in a 37° C. and 5% CO2 humidified incubator. The media was replaced with antibiotics-free medium RPMI 2 minutes before the transfection. esiRNA was mixed with Lipofectamine RNAiMAX transfection reagent in 100 μl optimal medium at the required concentration of 13 pmol/mL and were incubated at room temperature for 30 min to form a complex and the mixture was supplemented to each well with optimal medium. Four hours after the transfection, the transfected cells were CAP treated. After 24 hours after the CAP treatment, cells viability was assessed by using MTT assay. Thiazolyl blue tetrazolium bromide (MTT) assay was performed on the cells 24 hours after plasma treatment following the manufacturer's protocol with all MTT assay reagents purchased from Sigma-Aldrich (St. Louis, Mo., USA). The absorbance of the dissolved compound was measured by BioTek Synergy HTX (Winooski, Vt., USA) microplate reader at 570 nm following standard procedure. All viability assays were repeated 3 times with at least 2 replicates each. Data was plotted by Microsoft Excel 2016 as the mean±standard error of the mean. A student t-test or a one-way analysis of variance (ANOVA) was used to check statistical significance where applicable. The differences were considered statistically significant for * p<0.05. A one-way multivariate analysis of variance (MANOVA) followed by a Post-Hoc test was used to check statistical significance where applicable. […] At 24 hrs after transfection with BCL2A1 esiRNA (13 pmol), as mentioned in methods section survival of treatments was determined by MTT assay. The data is represented by the SEM (n=3). (**** P<0.0001* p<0.05, ** p<0.01, *** p<0.001, Student's t-test) versus control. FIGS. 19A-19B show viability of triple cancer breast cancer cell line MDA-MB-231 with Gambogic acid, an antagonist of antiapoptotic Bc1-2 family (FIG. 19A) or CPI203 (FIG. 19B, a BET bromodomain inhibitor after CAP treatment. Bar graph represents MDA-MB-231 MTT cell viability assay after treatment with Gambogic acid (FIG. 19A) or CPI203 (FIG. 19B) in combination of with/without CAP treatment at 80 p Or 120 p 5 mins at 3 L/min He. The samples were compared to the mock control groups. The data is represented by the SEM (n=3). (* p<0.05, ** p<0.01, *** p<0.001, Student's t-test).

Compound	cell viability in combination with CAP treatment compared to CAP treatment alone (MDA-MB-231, CAP 80 p or 120 p 5 mins at 3 L/min He, MTT 24 hours after CAP)	cell viability (baseline toxicity), agent alone	cell viability, CPI203 with CAP treatment (MDA-MB-231, 0.25 uM, p<0.05)	cell viability, CPI203 with CAP treatment (MDA-MB-231, 1uM, p<0.01)	cell viability, CPI203 with CAP treatment (MDA-MB-231, 5uM, p<0.001)	CAP-induced cell death, combination of CAP and agent (breast cancer cells, p<0.05)
CC(C)=CCC[C@]1(C)C=Cc2c(O)c3c(c(CC=C(C)C)c2O1)O[C@]12C(=C[C@@H]4C[C@H]1C(C)(C)O[C@@]2(C/C=C(/C)C(=O)O)C4=O)C3=O [GA, gambogic acid]	no dose that significantly reduced the viability of cells	cell viability decreased in all the 5 doses	–	–	–	–
Cc1sc2c(c1C)C(c1ccc(Cl)cc1)=N[C@@H](CC(N)=O)c1nnc(C)n1-2 [CPI203]	–	without any cytotoxicity by itself	significant reduction in cell viability	significant reduction in cell viability	significant reduction in cell viability	dramatically increased the CAP-induced cell death
